Reference: ChEMBL document CHEMBL5346878, “SAR study of piperidine derivatives as inhibitors of 1,4-dihydroxy-2-naphthoate isoprenyltransferase (MenA) from Mycobacterium tuberculosis” (Eur J Med Chem, 2023)
Values after ≈ are worked out from the molar mass of the structure shown. Active and inactive are the calls of the source. The calls are words filed in the database; no cut-off is given here.

Key:
[1] = tested on: Mycobacterium tuberculosis; test: Displacement of 14C-SAM from Mycobacterium tuberculosis membrane MenG assessed as reduction in MK8 synthesis at 12.5 uM incubated for 1 hr by liquid scintillation counting method; type: cell membranes
[2] = tested on: Mycobacterium tuberculosis; test: Antibacterial activity against Mycobacterium tuberculosis mc2 6230 assessed as bacterial growth inhibition incubated for 5 days by absorbance based assay; type: functional, organism-based; details: mc2 6230, 120 h; for GI50: time 5 day
[3] = target: T1, 1,4-dihydroxy-2-naphthoate octaprenyltransferase (Mycobacterium tuberculosis, UniProt P9WIP3); test: Displacement of [3H]FPP from Mycobacterium tuberculosis mc2 6230 membrane protein MenA incubated for 30 mins by liquid scintillation spectrometry; type: cell membranes
T1 sequence (P9WIP3 whole entry): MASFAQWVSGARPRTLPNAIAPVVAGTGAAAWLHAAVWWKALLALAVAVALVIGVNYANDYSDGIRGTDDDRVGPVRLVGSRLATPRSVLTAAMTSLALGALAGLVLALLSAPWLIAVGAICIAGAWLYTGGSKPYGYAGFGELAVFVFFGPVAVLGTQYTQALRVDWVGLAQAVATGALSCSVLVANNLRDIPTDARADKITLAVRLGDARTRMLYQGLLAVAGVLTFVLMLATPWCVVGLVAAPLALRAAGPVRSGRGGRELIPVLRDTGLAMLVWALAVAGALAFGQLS

[4] = tested on: Mycobacterium tuberculosis; test: Antibacterial activity against Mycobacterium tuberculosis H37Rv (ATCC 27294) assessed as bacterial growth inhibition incubated for 7 days by microdilution alamarBlue assay; type: functional; details: 168 h, time 7 day
[5] = tested on: Mycobacterium tuberculosis; test: Synergistic bactericidal activity against Mycobacterium tuberculosis H37RvLP (ATCC 25618) incubated for 14 days in presence of CPZ relative to control; type: functional; details: time 14 day
[6] = tested on: Mycobacterium tuberculosis; test: Synergistic bactericidal activity against Mycobacterium tuberculosis H37RvLP (ATCC 25618) assessed as fold increase in activity upto 100 uM in presence of CPZ; type: functional
[7] = tested on: Mycobacterium tuberculosis; test: Synergistic bactericidal activity against Mycobacterium tuberculosis H37RvLP (ATCC 25618) at 25 uM in presence of IMP; type: functional, organism-based
[8] = tested on: Mycobacterium tuberculosis; test: Synergistic bactericidal activity against Mycobacterium tuberculosis H37RvLP (ATCC 25618) at 25 uM in presence of Q203; type: functional, organism-based
[9] = tested on: Mycobacterium tuberculosis; test: Bactericidal activity against Mycobacterium tuberculosis H37RvLP (ATCC 25618) at 50 to 100 uM; type: functional, organism-based; details: dose 50-100 µM
[10] = tested on: Mycobacterium tuberculosis; test: Synergistic bactericidal activity against Mycobacterium tuberculosis H37RvLP (ATCC 25618) assessed as fold increase in activity at <12.5 uM in presence of IMP; type: functional
[11] = tested on: Mycobacterium tuberculosis; test: Antibacterial activity against Mycobacterium tuberculosis assessed as bacterial growth inhibition; type: functional

| SMILES | GI50 [2] [µM] | IC50 ([3]; read-out: IC50) [µM] | further results |
| --- | --- | --- | --- |
| CCCN(C)c1ccc(CN2CCC(COc3noc4ccccc34)CC2)cc1 |  |  | inhibition [1]: inactive |
| CCCN(C)c1ccc(CN2CCC(COc3ccccc3F)CC2)cc1 | 35 | 18 |  |
| COc1ccc(-c2cc(NC(=O)c3ccc(Cl)cc3F)ccc2OC)cc1 |  |  | MIC90 [4]: 4.8 µg/mL (≈ 12.4 µM); inhibition [1]: Active |
| CCCN(C)c1ccc(CN2CCC(COc3ccc(Br)cc3)CC2)cc1 | 11 | 12 |  |
| CCCN(C)c1ccc(CN2CCC(COc3ccccc3Cl)CC2)cc1 | 39 | 31 |  |
| CCCN(C)c1ccc(CN2CCC3(CC2)CC(Oc2ccc(Cl)cc2)CO3)cc1 (stereo unspecified) | 25 | > 50 |  |
| CCCN(C)c1ccc(CN2CCC3(CC2)CC(Oc2cccc(Oc4ccccc4)c2)CO3)cc1 (stereo unspecified) | 9 |  |  |
| CCCN(C)c1ccc(CN2CCC(COc3cc(=O)n(C)c4ccccc34)CC2)cc1 | 11 | 102 |  |
| c1ccc(Oc2cccc(OCC3CCN(Cc4ccc(N5CCOCC5)cc4)CC3)c2)cc1 | 21 |  | inhibition [1]: inactive |
| CCCN(C)c1ccc(CN2CCC(COC3[C@H]4C[C@@H]5C[C@@H](C[C@H]3C5)C4)CC2)cc1 (stereo partly specified) | 6 | 23 |  |
| CCCN(C)c1ccc(CN2CCC(COc3ccc(Cl)cc3)CC2)cc1 | 10 | 22 | inhibition (INH) [5]: 100%; fold change (FC) [6]: 1; Activity [7]: Active; Activity [8]: Active; Activity [9]: Active; inhibition [1]: inactive |
| CCCN(C)c1ccc(CN2CCC(CSc3ccccc3C(=O)OC)CC2)cc1 |  |  | inhibition [1]: inactive |
| CCCN(C)c1ccc(CN2CCC(COc3ccc(OC)cc3)CC2)cc1 | 18 |  | inhibition [1]: inactive |
| CCCN(C)c1ccc(CN2[C@@H]3CC[C@H]2CC(Oc2cccc(Oc4ccccc4)c2)C3)cc1 (stereo partly specified) | 17 | 27 |  |
| CCCN(C)c1ccc(CN2CCC(COc3ccc(C)cn3)CC2)cc1 | 31 | > 50 |  |
| CCCN(C)c1ccc(CN2CCC(COc3c(F)cccc3F)CC2)cc1 | 28 | 25 |  |
| CCCN(C)c1ccc(CN2CCC(COc3cccc(C(=O)N4CCOCC4)c3)CC2)cc1 | > 215 |  | IC50 [3]: Not Active |

| SMILES | GI50 [2] [µM] | IC50 ([3]; read-out: IC50) [µM] | further results |
| --- | --- | --- | --- |
| CCCN(C)c1ccc(CN2CCC(COc3cccc(Oc4ccccc4)c3)CC2)cc1 | 8 | 13 | inhibition (INH) [5]: 100%; fold change (FC) [6]: 1; fold change (FC) [10]: >3; Activity [9]: Active; inhibition [1]: inactive |
| CCCN(C)c1ccc(CN2CCC(COc3cccc(Nc4ccccc4C)c3)CC2)cc1 | 16 | 22 | inhibition [1]: inactive |
| CCCN(C)c1ccc(CN2CCC(COc3cccc(Br)c3)CC2)cc1 | 14 | 12 | inhibition [1]: inactive |
| CCCN(C)c1ccc(CN2C[C@@H]3C[C@H]2CN3Cc2ccc(N3CCOCC3)cc2)cc1 | 149 | > 50 |  |
| COc1ccc2ccc(OCCCCCCCCN3CCCCC3)cc2c1 |  |  | MIC [11]: 8.1 µM (≈ 2.99 µg/mL) |
| COc1ccc2ccc(OCCCCCCCCNCCc3ccc(F)cc3)cc2c1 |  |  | MIC [11]: < 14.2 µM |
| CCCN(C)c1ccc(CN2CCC(COc3cccc(Cc4ccc(Cl)cc4)c3)CC2)cc1 | > 226 | 55 |  |
| CCCN(C)c1ccc(CN2CCC(CSc3ccccc3)CC2)cc1 |  | 18 |  |
| CCCN(C)c1ccc(CN2CCC(COc3cccc(C(=O)c4ccc(Cl)cc4)c3)CC2)cc1 | 8 | 14 |  |
| CCCN(C)c1ccc(CN2CCC(COc3ccccc3)CC2)cc1 | 27 | 64 |  |
| CCCN(C)c1ccc(CN2CCC(COc3ccc4ccccc4c3)CC2)cc1 | 7 | 21 |  |
| CCCN(C)c1ccc(CN2CCCC(Oc3cccc(Oc4ccccc4)c3)C2)cc1 (stereo unspecified) | 37 | 24 |  |
| C=CCN(C)CCCCCCCCOc1ccc2ccc(OC)cc2c1 |  |  | MIC [11]: 8.4 µM (≈ 2.99 µg/mL) |
| CCCN(C)c1ccc(CN2CCC(COc3ccc(F)cc3)CC2)cc1 | 14 | 33 |  |
| CCCN(C)c1ccc(CN2CCC(COc3ccc(Cl)cc3Cl)CC2)cc1 | 13 |  |  |
| CCCN(C)c1ccc(CN2CCC(COc3nc4ccc(F)cc4s3)CC2)cc1 |  | 31 | IC50 [2]: 11 µM |
